Counter-ions that a name gives are not always drawn.
Legend:
[1] = target: T1, 5-hydroxytryptamine receptor 2C (Homo sapiens, UniProt P28335); test: Displacement of [3H]mesulergine from 5HT2C receptor
T1 sequence (P28335 whole entry): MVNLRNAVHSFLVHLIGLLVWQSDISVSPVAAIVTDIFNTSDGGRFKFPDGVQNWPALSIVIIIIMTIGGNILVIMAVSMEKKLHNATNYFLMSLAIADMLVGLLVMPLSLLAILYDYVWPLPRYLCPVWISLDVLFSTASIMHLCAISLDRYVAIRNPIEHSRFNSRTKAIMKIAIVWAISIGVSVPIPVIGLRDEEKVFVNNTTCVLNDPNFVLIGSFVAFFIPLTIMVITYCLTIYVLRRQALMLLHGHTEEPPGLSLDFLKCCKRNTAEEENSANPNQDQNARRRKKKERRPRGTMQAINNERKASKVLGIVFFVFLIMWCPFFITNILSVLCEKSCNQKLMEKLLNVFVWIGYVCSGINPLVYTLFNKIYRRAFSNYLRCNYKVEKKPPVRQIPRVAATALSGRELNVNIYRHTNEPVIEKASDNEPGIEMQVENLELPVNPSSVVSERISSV

[2] = target: T1, 5-hydroxytryptamine receptor 2C; test: Agonist activity at human 5HT2C receptor expressed in HEK293 cells assessed as calcium flux by FLIPR assay
[3] = target: T2, 5-hydroxytryptamine receptor 2A (Homo sapiens, UniProt P28223); test: Displacement of [3H]ketanserin from human 5HT2A receptor
[4] = target: Sodium-dependent serotonin transporter (Homo sapiens, UniProt P31645); test: Displacement of [3H]citalopram from SERT
[5] = target: T3, 5-hydroxytryptamine receptor 2B (Homo sapiens, UniProt P41595); test: Agonist activity at human 5HT2B receptor expressed in HEK293 cells assessed as calcium flux by FLIPR assay
[6] = target: T3, 5-hydroxytryptamine receptor 2B; test: Displacement of [3H]LSD from human 5HT2B receptor
[7] = target: Sodium-dependent dopamine transporter (Homo sapiens, UniProt Q01959); test: Displacement of [3H]WIN-35428 from DAT
[8] = target: T2, 5-hydroxytryptamine receptor 2A; test: Agonist activity at human 5HT2A receptor expressed in HEK293 cells assessed as calcium flux by FLIPR assay
[9] = target: Sodium-dependent noradrenaline transporter (Homo sapiens, UniProt P23975); test: Displacement of [3H]nisoxetine from NET
Sequence of Sodium-dependent noradrenaline transporter (P23975 whole entry): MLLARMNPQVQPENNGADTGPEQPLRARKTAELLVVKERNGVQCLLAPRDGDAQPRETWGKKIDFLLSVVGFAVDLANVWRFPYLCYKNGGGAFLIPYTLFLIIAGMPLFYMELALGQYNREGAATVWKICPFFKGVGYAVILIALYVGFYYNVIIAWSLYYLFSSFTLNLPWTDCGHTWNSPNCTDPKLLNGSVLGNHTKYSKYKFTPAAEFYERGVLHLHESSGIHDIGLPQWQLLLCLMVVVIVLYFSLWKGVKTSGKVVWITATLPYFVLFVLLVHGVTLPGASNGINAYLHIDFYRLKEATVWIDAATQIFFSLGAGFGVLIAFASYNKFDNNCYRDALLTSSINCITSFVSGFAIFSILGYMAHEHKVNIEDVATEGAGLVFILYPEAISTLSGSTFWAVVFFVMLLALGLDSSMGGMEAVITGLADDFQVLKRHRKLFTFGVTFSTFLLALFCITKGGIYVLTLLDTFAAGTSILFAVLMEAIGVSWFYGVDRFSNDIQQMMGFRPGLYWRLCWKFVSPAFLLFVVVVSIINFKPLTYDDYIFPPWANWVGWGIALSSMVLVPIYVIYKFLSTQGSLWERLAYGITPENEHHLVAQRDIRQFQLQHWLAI

T3 sequence (P41595 whole entry): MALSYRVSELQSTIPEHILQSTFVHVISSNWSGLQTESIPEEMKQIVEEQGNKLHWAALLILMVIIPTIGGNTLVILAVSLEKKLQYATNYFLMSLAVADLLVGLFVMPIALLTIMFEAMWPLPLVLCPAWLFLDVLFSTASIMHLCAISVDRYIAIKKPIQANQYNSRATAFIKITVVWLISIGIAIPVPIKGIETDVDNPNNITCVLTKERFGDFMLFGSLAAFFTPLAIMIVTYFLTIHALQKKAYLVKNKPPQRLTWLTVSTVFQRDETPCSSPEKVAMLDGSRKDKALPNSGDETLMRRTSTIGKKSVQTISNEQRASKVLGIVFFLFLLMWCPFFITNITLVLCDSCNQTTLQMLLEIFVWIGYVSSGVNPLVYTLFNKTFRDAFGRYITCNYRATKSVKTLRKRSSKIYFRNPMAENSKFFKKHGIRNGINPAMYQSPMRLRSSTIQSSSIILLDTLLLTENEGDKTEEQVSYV
T2 sequence (P28223 whole entry): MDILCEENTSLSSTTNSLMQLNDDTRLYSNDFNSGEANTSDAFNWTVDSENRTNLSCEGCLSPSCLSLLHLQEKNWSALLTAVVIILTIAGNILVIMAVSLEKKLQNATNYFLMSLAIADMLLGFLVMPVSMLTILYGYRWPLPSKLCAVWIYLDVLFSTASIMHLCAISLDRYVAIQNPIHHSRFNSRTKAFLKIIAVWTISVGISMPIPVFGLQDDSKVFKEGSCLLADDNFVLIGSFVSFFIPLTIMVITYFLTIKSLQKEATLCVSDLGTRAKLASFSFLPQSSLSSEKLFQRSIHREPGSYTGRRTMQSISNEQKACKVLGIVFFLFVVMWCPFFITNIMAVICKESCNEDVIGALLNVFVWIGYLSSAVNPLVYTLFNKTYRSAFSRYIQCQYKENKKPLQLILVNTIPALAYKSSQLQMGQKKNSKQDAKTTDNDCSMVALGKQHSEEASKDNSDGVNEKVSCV
Sequence of Sodium-dependent dopamine transporter (Q01959 whole entry): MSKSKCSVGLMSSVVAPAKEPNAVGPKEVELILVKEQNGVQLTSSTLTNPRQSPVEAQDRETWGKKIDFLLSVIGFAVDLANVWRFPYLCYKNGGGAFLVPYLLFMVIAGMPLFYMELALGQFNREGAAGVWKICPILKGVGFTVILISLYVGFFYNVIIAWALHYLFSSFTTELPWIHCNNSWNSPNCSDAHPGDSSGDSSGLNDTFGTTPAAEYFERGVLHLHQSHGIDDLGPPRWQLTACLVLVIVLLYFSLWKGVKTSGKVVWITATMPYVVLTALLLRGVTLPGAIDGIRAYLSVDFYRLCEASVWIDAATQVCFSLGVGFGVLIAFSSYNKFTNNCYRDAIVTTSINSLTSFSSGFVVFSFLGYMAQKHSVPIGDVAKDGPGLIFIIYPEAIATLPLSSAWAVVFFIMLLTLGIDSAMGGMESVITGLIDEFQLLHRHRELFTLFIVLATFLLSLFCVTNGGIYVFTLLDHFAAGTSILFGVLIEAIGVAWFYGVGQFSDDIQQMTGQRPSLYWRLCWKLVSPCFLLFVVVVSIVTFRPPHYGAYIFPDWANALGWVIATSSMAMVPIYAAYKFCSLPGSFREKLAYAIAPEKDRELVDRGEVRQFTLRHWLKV
Sequence of Sodium-dependent serotonin transporter (P31645 whole entry): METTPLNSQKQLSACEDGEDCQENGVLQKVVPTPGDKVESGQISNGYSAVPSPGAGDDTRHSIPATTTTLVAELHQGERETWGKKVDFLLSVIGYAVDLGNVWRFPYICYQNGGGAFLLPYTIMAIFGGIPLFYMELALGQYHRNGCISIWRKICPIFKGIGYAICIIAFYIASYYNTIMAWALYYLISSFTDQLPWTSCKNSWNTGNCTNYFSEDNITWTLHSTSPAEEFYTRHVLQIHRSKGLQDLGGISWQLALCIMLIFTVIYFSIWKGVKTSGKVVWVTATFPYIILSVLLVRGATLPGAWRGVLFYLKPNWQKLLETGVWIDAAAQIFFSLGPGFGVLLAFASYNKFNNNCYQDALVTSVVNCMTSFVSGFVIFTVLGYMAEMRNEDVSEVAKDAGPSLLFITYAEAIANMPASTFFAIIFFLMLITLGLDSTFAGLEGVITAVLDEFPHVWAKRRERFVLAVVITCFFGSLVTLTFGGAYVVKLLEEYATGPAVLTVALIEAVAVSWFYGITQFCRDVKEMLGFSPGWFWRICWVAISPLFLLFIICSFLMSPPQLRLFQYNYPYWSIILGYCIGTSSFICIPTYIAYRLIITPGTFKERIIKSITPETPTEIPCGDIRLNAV

With `NC[C@H]1C[C@@H]1c1ccc(F)cc1` (relative stereo) [trans-[2-(4-Fluorophenyl)cyclopropyl]methylamine Hydrochloride] the Ki [1] was 0.242 µM, the EC50 [2] was 0.0054 µM and the Ki [3] was 2.78 µM. It also gave a Ki [4] of 2.71 µM, an EC50 [5] of 0.021 µM and a Ki [6] of 0.089 µM. The Ki [7] was 3.26 µM, the EC50 [8] was 0.508 µM and the Ki [9] was 6.78 µM.

— BindingDB's records for doi:10.1021/jm801354e (University of Illinois At Chicago, 2009)
